In US20250332298A1, “PEPTIDE-COUPLED ALGINATE GELS COMPRISING RADIONUCLIDES” (BLUE WAVE THERAPEUTICS GMBH, priority 2021, published 2025):
Several values for one entry are separate records, joined by “and”; a condition that tells them apart may be missing. Identical values can stand only once.

Key:
[1] = Binding efficiency of thorium-227 and its decay daughters to preformed alginate microspheres (calcium cross-linked); format: physicochemical; conditions: for Bound at 1 h, Bq: 227Th4+ solution in NaCl; for Bound at 1 h, Bq / Bound at 1 h, %: 1 h incubation; for Bound at 2 h, Bq / Bound at 2 h, %: 2 h incubation; for Bound at 1 h, % / Bound at 2 h, %: % of available radioactivity
Description: In this Experiment, binding of a tetravalent radionuclide cation to alginate microspheres was studied.
Calcium crosslinked, inhomogeneous gelled alginate microspheres were made in the same manner as shown in Example 5 above. The microspheres were washed three times using 0.9% NaCl solution, resuspended in 0.8% NaCl and incubated with a solution of ^227Th^4+. Of the available amount of radioactivity, approximately 30% bound to the pre-formed alginate microspheres (Table 3).

[2] = Binding of radium-224 and decay daughters to calcium alginate microparticles and retention over 12 days; conditions: for Day 0 particles directly after labelling, radioactivity: 30 mg microparticles, 30 min room temperature, washed, HPGe; for Day 1 radioactivity associated with particles: 24 hours after labelling; for Day 1 radioactivity associated with particles / Day 12 radioactivity associated with particles: room temperature, after washing with water; for Day 12 radioactivity associated with particles: 12 days after labelling; for Day 0 % bound radioactivity relative to available radioactivity: directly after labelling
Description: Calcium alginate was produced via the conversion of sodium alginate powder suspended in isopropyl alcohol by adding an aqueous solution of calcium chloride as exemplified in US 2011/0053886 incorporated herein.
A 30 mg sample of calcium alginate microparticles, having an average size distribution (DV50) of 13 μm, was resuspended first in 200 μl water, then 150 μl radium-224 solution was added followed by an additional 150 μl of water. The sample was vortex mixed then incubated at room temperature for 30 min. An aliquot of 500 μl water was added to the particle suspension. The sample was vortex mixed then centrifuged for 1 min at 6000 rpm. The supernatant was transferred to another Eppendorf tube labelled Wash 1. The particle sample was then resuspended in 1000 μl water, vortexed, then centrifuged. The supernatant was transferred to an Eppendorf tube labelled Wash 2. The wash with 1000 μl water was repeated and the supernatant collected to tube Wash 3. Samples were then analysed for radioactivity using a high purity germanium detector.
The sample was kept at room temperature and analysed again at day 1 (24 hours after labelling) and 12 days after labelling. Radioactivity was determined after first washing the particles with water.
This solution represents the available radioactivity, and radionuclides, added to calcium alginate microparticles. Following incubation and a wash to remove unbound radioactivity, the radioactivity associated with the alginate microparticles was again measured respective to each decay daughter radionuclide. The % bound radioactivity relative to the available radioactivity was calculated.
When the particles were washed on day 1 after labelling, and radioactivity determined (HPGe detector), in addition, the amount of 224-Ra radioactivity theoretically remaining associated with the alginate microparticles was calculated using an available radioactive decay calculator (http://www.radprocalculator.com).

In the case of `[227Th]` [Thorium-227], the “Bound at 1 h, Bq” value [1] is reported as 24679 Bq, the “Bound at 2 h, Bq” value [1] is reported as 30647 Bq and the “Bound at 1 h, %” value [1] is reported as 30.4%. For the same compound, the “Bound at 1 h, %” value ([1]; listed as 227Th) was “approximately 30%”, the “Bound at 1 h, %” value ([1]; listed as thorium-227) was “approximately 30%” and the “Bound at 2 h, %” value [1] was 37.7%.

With `[224Ra]` [Formulation 224-Ra, radium-224] the “Day 0 particles directly after labelling, radioactivity” value (from here on “Day 0 particles directly”) [2] was 8720 Bq and 8740 Bq, the “Day 1 radioactivity associated with particles” value (shortened to “Day 1 radioactivity associated”) [2] was 7270 Bq and the “Day 12 radioactivity associated with particles” value (from here on “Day 12 radioactivity associated”) [2] was 913 Bq. The “Day 1 % radioactivity remaining bound relative to theoretical radioactivity following decay” value ([2]; Day 1) was 100%, the “Day 12 % radioactivity remaining bound relative to theoretical radioactivity following decay” value ([2]; Day 12) was 100% and 101% and the “Day 0 % bound radioactivity relative to available radioactivity” value [2] was 94.9%.

For `[212Pb]` [Formulation 212-Pb, lead-212], the “Day 0 particles directly” value [2] was 8370 Bq, the “Day 1 radioactivity associated” value [2] was 7840 Bq and the “Day 12 radioactivity associated” value [2] was 1040 Bq.

For `[211Bi]` [Bismuth-211], the “Bound at 1 h, Bq” value [1] was 10067 Bq, the “Bound at 2 h, Bq” value [1] was 11154 Bq and the “Bound at 1 h, %” value [1] was 90.2%. The “Bound at 1 h, %” value ([1]; listed as 211Bi) was 100%, the “Bound at 1 h, %” value ([1]; listed as bismuth) was 100% and the “Bound at 2 h, %” value [1] was 99.9%.

With `[223Ra]` [Radium-223] the “Bound at 1 h, Bq” value [1] was 10512 Bq, the “Bound at 2 h, Bq” value [1] was 11201 Bq and the “Bound at 1 h, %” value [1] was 111.5%. For the same compound, the “Bound at 1 h, %” value ([1]; listed as 223Ra) was 100%, the “Bound at 1 h, %” value ([1]; listed as radium) was 100% and the “Bound at 2 h, %” value [1] was 118.8%.

For `[212Bi]` [Formulation 212-Bi, bismuth 212], the “Day 0 particles directly” value [2] was 7640 Bq, the “Day 1 radioactivity associated” value [2] was 7650 Bq and the “Day 12 radioactivity associated” value [2] was 910 Bq. The “Day 0 % bound radioactivity relative to available radioactivity” value [2] was 83.6%.
